Experimental data reported in ChEMBL document CHEMBL3879881, “Substituted pyrazolyl compounds for the treatment of inflammation” (2005).

Target: T1, Inhibitor of nuclear factor kappa-B kinase subunit beta (Homo sapiens, UniProt O14920)
T1 sequence (O14920 whole entry): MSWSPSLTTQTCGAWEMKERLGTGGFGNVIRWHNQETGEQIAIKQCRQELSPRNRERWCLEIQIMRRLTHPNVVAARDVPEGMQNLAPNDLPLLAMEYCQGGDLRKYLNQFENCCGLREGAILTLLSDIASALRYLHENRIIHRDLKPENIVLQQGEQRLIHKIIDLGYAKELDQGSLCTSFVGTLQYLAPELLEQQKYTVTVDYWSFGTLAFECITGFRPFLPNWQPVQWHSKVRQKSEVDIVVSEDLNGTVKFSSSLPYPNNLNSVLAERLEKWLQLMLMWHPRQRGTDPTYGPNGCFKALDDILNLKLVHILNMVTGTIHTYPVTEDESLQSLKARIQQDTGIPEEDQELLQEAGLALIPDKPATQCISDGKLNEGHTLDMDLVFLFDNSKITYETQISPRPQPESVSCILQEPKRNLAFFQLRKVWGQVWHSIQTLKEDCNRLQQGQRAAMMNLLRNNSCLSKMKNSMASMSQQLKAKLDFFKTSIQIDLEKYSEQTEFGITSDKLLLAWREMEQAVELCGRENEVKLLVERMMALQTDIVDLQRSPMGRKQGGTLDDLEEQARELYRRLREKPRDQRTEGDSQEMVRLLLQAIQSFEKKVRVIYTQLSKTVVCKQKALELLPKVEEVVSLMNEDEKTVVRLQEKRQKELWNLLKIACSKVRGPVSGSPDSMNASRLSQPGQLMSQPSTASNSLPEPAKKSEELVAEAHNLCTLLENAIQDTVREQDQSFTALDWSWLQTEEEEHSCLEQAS
Experiment: Inhibition of human recombinant C-terminal FLAG-epitope-tagged IKK2 expressed in baculovirus using biotinylated IkappaBalpha peptide as substrate assessed as decrease in [gamma-33P]-ATP incorporation in substrate after 30 mins by scintillation counting method

SMILES | IC50
CCN1CCN(c2cc(C(=O)Nc3ccc4c(c3)-c3c(c(C(N)=O)nn3-c3ccc(F)cc3)CC4)c(Cl)cn2)CC1 | ≤ 1000 nM
CN1CCN(c2ncc(Cl)c(C(=O)Nc3ccc4c(c3)-c3c(c(C(N)=O)nn3-c3ccc(F)cc3)CC4)n2)CC1 | ≤ 1000 nM
C[C@@H]1CN(c2cc(C(=O)Nc3ccc4c(c3)-c3c(c(C(N)=O)nn3-c3ccc(F)cc3)CC4)c(Cl)cn2)C[C@H](C)N1C | ≤ 1000 nM
C[C@@H]1CN(c2cc(C(=O)Nc3ccc4c(c3)-c3c(c(C(N)=O)nn3-c3ccc(F)cc3)CC4)c(Cl)cn2)C[C@H](C)N1 | ≤ 1000 nM
CN1CCN(c2ncc(Cl)c(C(=O)Nc3ccc4c(c3)-c3c(c(C(N)=O)nn3-c3ccc5c(c3)OCO5)CC4)n2)CC1 | ≤ 1000 nM
CS(=O)(=O)c1ncc(Cl)c(C(=O)Nc2ccc3c(c2)-c2c(c(C(N)=O)nn2-c2ccc4c(c2)OCO4)CC3)n1 | ≤ 1000 nM
NC(=O)c1nn(-c2ccncc2)c2c1CCc1ccc(NC(=O)c3cc(Cl)ncc3Cl)cc1-2 | ≤ 1000 nM
CN1CCN(c2cc(C(=O)Nc3ccc4c(c3)-c3c(c(C(N)=O)nn3-c3ccncc3)CC4)c(Cl)cn2)CC1 | ≤ 1000 nM
CC(C)N1CCN(c2cc(C(=O)Nc3ccc4c(c3)-c3c(c(C(N)=O)nn3-c3ccc(F)cc3)CC4)c(Cl)cn2)CC1 | ≤ 1000 nM
C[C@H]1CN(c2cc(C(=O)Nc3ccc4c(c3)-c3c(c(C(N)=O)nn3-c3ccc(F)cc3)CC4)c(Cl)cn2)CCN1C | ≤ 1000 nM
C[C@@H]1CN(c2cc(C(=O)Nc3ccc4c(c3)-c3c(c(C(N)=O)nn3-c3ccc(F)cc3)CC4)c(Cl)cn2)CCN1C | ≤ 1000 nM
C[C@H]1CN(c2cc(C(=O)Nc3ccc4c(c3)-c3c(c(C(N)=O)nn3-c3ccc(F)cc3)CC4)c(Cl)cn2)CCN1 | ≤ 1000 nM
